By EC50 is commonly meant the midpoint of the concentration-response curve.

Consider one compound from US9828344B2, “Inhibitors of the notch signaling pathway and secretion for use in medicine” (Leibniz-Institut für Altersforschung Fritz-Lipmann-Institut …, priority 2012, dated 2017).

The subject of the assay is NotchΔE-EGFP. Briefly: cells. In kind it is cell-based. From the text:
To identify novel regulatory factors involved in Notch trafficking/processing an image-based high content screen was set up. […] NotchΔE-EGFP is a direct substrate for γ-secretase at the PM, and under physiological conditions is proteolytically processed to NICD-EGFP that translocates into the nucleus (for scheme see FIG. 1b), resulting in a strong nuclear EGFP-staining in steady state^15 (FIG. 1d). […] Importantly, changes in subcellular localization of the reporter are amenable to quantitation by automated microscopy^15. Accordingly, reporter fluorescence was determined in the nucleus (nuc) and in a ring around the nucleus (enuc), and the ratio enuc/nuc was evaluated (schematized in FIG. 1c). Thereafter, the assay design was functionally validated. […] The assay also reliably detected trafficking defects in the secretory pathway. […] Taken together, the assay was validated for reliably detecting concentration and time dependent changes in trafficking and processing of the Notch reporter.
Cells were seeded in 96-well plates at a density of 5000 cells/well in 100 μl medium. The next day, 100 μl medium containing the respective test compounds was added. Cells were incubated for 16 h, fixed and processed for automated microscopy. For the putative gamma-secretase inhibitors the enuc intensity was divided by the DAPT control and for the trafficking inhibitors normalized percentage inhibition against DAPT/DMSO controls of log 2 transformed nuc/enuc ratios were calculated. Relative activity values were read into “R” (http://www.r-project.org/) and EC50 estimates were calculated using four-parameter log-logistic fit with the package “drc”^51.
Images were acquired on an ArrayScan VTi automated microscope (ThermoFisher) and numerical data were extracted with the Compartmental Analysis BioApplication of the bundled software suite. Compound screening raw data were collected at the FMP and data transformation was performed according to standard procedures (ref 17 and supp. Refs 6-7).

The structures appear in SMILES notation.

As to `CC1=C(C(=O)OC2CCCCC2)C(c2ccc([N+](=O)[O-])cc2)C2=C(CC(C)(C)CC2=O)N1` (centres unmarked) [FLI-06, Cyclohexyl 4-(4′-nitrophenyl)-2,7,7-trimethyl-5-oxo-1,4,5,6,7,8-hexahydroquinoline-3-carboxylate], the “activity in NotchΔE-EGFP cells (enuc/nuc ratios)” value (SAR and prior-art comparison, FIG. 5a/5b) was “equally active as the initial screening hit”. Besides, the EC50 (assay not given, read-out: EC50 as secretion inhibitor) amounted to 2300 nM.
